Reference: patent US11608367B2, “Peptides for angiogenic therapy” (The Regents of the University of California, priority 2018, dated 2023)

What was measured:
[1] = system: cancer, cardiac and neuronal cell lines; test: Categorisation of active ADPs as pro-/anti-apoptotic (Example 15); details: criteria of Example 15
[2] = Effectiveness of ADPs (Example 1, Table 6; cell death assays of FIGS. 10-13); type: cell-based; details: ADPs with N-terminal tumor penetrating peptide and C-terminal fluorescent tag; graded in words
From the text: FIGS. 10A-C show the sequences mapped, peptide blots, imaging to show expression and cell death assays for these three peptides. A) PPA-1 (PEPTIDE23) (SEQ ID NO:23), B) PPA4 (PEPTIDE19) (SEQ ID NO:19), C) PPA10 (PEPTIDE16 including FF at C-terminus) (SEQ ID NO:16).
FIGS. 11A-B show the sequences mapped, peptide blots, imaging to show expression and cell death assays for these HSP-70 peptides. A) PHA4 (PEPTIDE5) (SEQ ID NO:5), B) PHA5 (PEPTIDE13 plus C-terminal L) (SEQ IDS NO: 13).
FIGS. 12A-C show the sequences mapped, peptide blots, imaging to show expression and cell death assays for these p65 (RELA) peptides. A) PRA1 (PEPTIDE14) (SEQ ID NO:14), B) PRA8 (PEPTIDE8) (SEQ ID NO:8), C) PRA9 (SEQ ID Nos:33 and 37-45).
FIGS. 13A-D show the sequences mapped, peptide blots, imaging to show expression and cell death assays for these HSP-70 peptides. A) PAA1-1 (PEPTIDE11) (SEQ ID NO:11), B) PPA1-3 (PEPTIDE15) (SEQ ID NO:15), C) PAR1 (PEPTIDE19), D) Paint 1 (PEPTIDE7) (SEQ ID NO:7).
ADPs were first identified using Peptide SPOT analysis. Peptides were identified from AKIP1. PKAc, HSP-70 and p65 sequences. The identified ADPs were attached at the N-terminus to tumor penetrating peptide based on the CENDR rule (FIG. 9). A fluorescent tag was attached to the C-terminus for ease of visualization.
To test these ADPs, CRISPR based AKIP1 knock-out cell lines were generated in HEK 293 and glioblastoma cell lines. Further, all the isoforms of AKIP1 were reintroduced into the AKIP1 knock-out glioblastoma cell lines.

[3] = system: U87-MG cells; test: Caspase-Glo 3/7 apoptotic assay; type: cell-based, human; details: cut-off value at 20 over scrambled control with P Value <0.05%
Protocol: Caspase-Glo® 3/7 assays (Promega) were performed according to the manufacturer's protocol. Briefly, 15,000-20,000 cells were seeded in a 96 well white flat bottom plate. The peptide constructs were transfected in triplicates using Lipofectamine 3000. Twenty four hour post-transfection, the cells were equilibrated at room temperature and Caspase-Glo® 3/7 reagent was dispensed into each well and the luminescent signal was measured 30-60 mins incubation at room temperature. The blank reaction was used to measure background luminescence associated with the cell culture system and Caspase-Glo® 3/7 Reagent alone. The value for the blank reaction was subtracted from experimental values to obtain the relative luminescence values (RLU). The percentage change over the Scrambled control was calculated from the mean as follows: [(Mean peptide RLU-Mean Scr RLU)/Scr RLU*100]. The P value was calculated using the Student t Test.
The efficacy of the 25 disclosed peptides to cause apoptosis in the U87-MG cells was measured using Caspase-Glo® 3/7 Assay. For each of the peptides, the percentage change over the scrambled control was tabulated and a cut-off value at 20 with a P Value of <0.05%.

[4] = system: cancer, cardiac and neuronal cell lines; test: Categorisation of active ADPs as pro-/anti-apoptotic (Example 15); details: depending on cell type
From the text: 2) improved cell viability in cardiac or neuronal cell lines and decreased viability in at least 2 cancer cell lines.

Sequence	Pro-apoptotic (anti-angiogenic) category [1]	Effectiveness [2]	further results
DIGNGQRKDRKKTSLGPGGSYQISEHA [PEPTIDE5]	Pro-apoptotic (anti-angiogenic)	High	–
DNCLAAAALNGVDRRSLQRSAKLALEVLERAKRR [PAint]	–	Moderate	–
DNCLAAAALNGVDRRSLQRSARLALEVLERAKR [PEPTIDE12]	–	–	anti-apoptotic (pro-angiogenic) category [1]: anti-apoptotic (pro-angiogenic)
DWWALGVLIYEMAAGYPP [PEPTIDE17]	Pro-apoptotic (anti-angiogenic)	–	–
FTDLASVONSEFQQLLNQ (FTDLASVDNSEFQQLLNQ) [PEPTIDE24]	–	–	apoptosis in U87-MG cells (in words) [3]: very low apoptosis
GGSYQISEHAPEASQPAENISKDLYIEVYPGTYS [PEPTIDE7]	Pro-apoptotic (anti-angiogenic)	Low	–
IMQDKLEKERNDAKNAVEEYVYEMRDKLSGEYEKFVSEDDRNSFTLKLEDTENWL [PHA 5, PEPTIDE13 without the C-terminal Y]	–	High	–
IMQDKLEKERNDAKNAVEEYVYEMRDKLSGEYEKFVSEDDRNSFTLKLEDTENWLY [PEPTIDE13]	Pro-apoptotic (anti-angiogenic)	–	–
KYYSSVPEEGGATHVYRYHRGESKLHM [PEPTIDE9]	Pro-apoptotic (anti-angiogenic)	High	–
LNGVDRRSLQRSARLALEVLERAK [PEPTIDE11]	Pro-apoptotic (anti-angiogenic)	High	both pro and anti-apoptotic effect [4]: both pro and anti-apoptotic effect; anti-apoptotic (pro-angiogenic) category [1]: anti-apoptotic (pro-angiogenic)
PLIFPAEPAQASGPYVEIIEQPKQ [PEPTIDE14]	Pro-apoptotic (anti-angiogenic)	High	–
REERPPTLSASFRTMAEFMDYTSSQCG [PEPTIDE1]	Pro-apoptotic (anti-angiogenic)	–	–
RKDRKKTSLGPGGSYQISEHAPEASQP [PEPTIDE2]	Pro-apoptotic (anti-angiogenic)	–	–
RRAVDWHALERPKGCMGVLAREAPHLEKQPAAGPQRVLPGE [PEPTIDE3]	Pro-apoptotic (anti-angiogenic)	–	–
SHFSEHTALWDRSMKEFLAKAKEDFLKK [PEPTIDE10]	Pro-apoptotic (anti-angiogenic)	–	both pro and anti-apoptotic effect [4]: both pro and anti-apoptotic effect; anti-apoptotic (pro-angiogenic) category [1]: anti-apoptotic (pro-angiogenic)
STDPAVFTDLASVDNSEFQQLLNQG [PEPTIDE25]	–	–	apoptosis in U87-MG cells (in words) [3]: very low apoptosis
VKKRDLEQAISQRIQTNNN [PEPTIDE18]	Pro-apoptotic (anti-angiogenic)	–	–
VKKRDLEQAISQRIQTNNNPFQVPIEEQRGDYDLNAVR [PEPTIDE8]	Pro-apoptotic (anti-angiogenic)	Moderate	both pro and anti-apoptotic effect [4]: both pro and anti-apoptotic effect; anti-apoptotic (pro-angiogenic) category [1]: anti-apoptotic (pro-angiogenic)
VTVGSNDLTKKTHVVAVDSGQSVDLVFPV [PEPTIDE4]	Pro-apoptotic (anti-angiogenic)	–	both pro and anti-apoptotic effect [4]: both pro and anti-apoptotic effect; anti-apoptotic (pro-angiogenic) category [1]: anti-apoptotic (pro-angiogenic)
